Patent publication US12312599B2, “Methods, compositions, and kits for producing beige adipocytes and treating metabolic disorders” (MaineHealth, priority 2018, dated 2025)

Test system: FD-MSCs
Assay: PLIN and PPARγ2 immunostaining of differentiated FD-MSC cultures
Format: cell-based, human
Conditions: SB-treated cultures
Experimental: All assays were performed between 7 and 15 passages. For osteocyte differentiation, mature MSCs were grown in 24 well culture plates to 100% confluency in MesenCult-ACF and induced to differentiate in OsteoLife Complete Osteogenesis Medium (Lifeline Cell Technology) for 21 days prior to staining with Lifeline Alizarin Red Stain to visualize calcium deposition. For chondrocyte differentiation. For beige adipogenic precursor generation, cells were grown in 24 well culture plates to 90% confluence and treated with 5 uM SB413542 (Sigma) and 10 nM human IL-4 (Peprotech) for 2 days. For beige adipogenic induction, adipogenic precursors are differentiated for 3 days with adipogenic medium consisting of T3 (2 nM), insulin (170 nM), rosiglitazone (1 μM), SB413542 (5 uM), IBMX (0.5 mM), dexamethasone (5 μM) and indomethacin (125 μM) in EGM-2 medium (Lonza) supplemented with the BulletKit minus FGF2 (modified from^33). Thereafter, cells are maintained in adipogenic medium without IBMX, dexamethasone and indomethacin. The medium was changed every 3 days and adipocytes were fully differentiated by 9-12 days as determined by lipid accumulation and peak expression of UCP1.
Cell Isolation, Expansion and Differentiation of Interscapular Brown Adipose Tissue Preadipocytes • 1. Prior to adipose cell isolation, warm DMEM, FBS and cell wash buffer to room temperature. • 2. […]

NC(=O)c1ccc(-c2nc(-c3ccc4c(c3)OCO4)c(-c3ccccn3)[nH]2)cc1 [SB, SB431542]
cells in culture that are mature adipocytes (PLIN and PPARγ2 staining): 87%-88%
